For experiment [1], the system named is Staphylococcus aureus. The experiment is described as follows: Antimicrobial activity against Staphylococcus aureus MTCC 96 after 24 hr by disk diffusion method. It is filed as functional. Conditions: for MIC: Staphylococcus aureus, MTCC 96, 24 h. In general terms: Agar diffusion results depend on both activity and mobility in agar.
Experiment [2] deals with Escherichia coli. The experiment is described as follows: Antimicrobial activity against Escherichia coli MTCC 739 after 24 hr by disk diffusion method. Type of experiment: functional. Conditions: for MIC: Escherichia coli, MTCC 739, 24 h.
For experiment [3], the system named is Bacillus subtilis. The experiment is described as follows: Antimicrobial activity against Bacillus subtilis MTCC 619 after 24 hr by disk diffusion method. Type of experiment: functional. Conditions: for MIC: Bacillus subtilis, MTCC 619, 24 h.
In experiment [4] the test system is Mycobacterium tuberculosis. The experiment is described as follows: Antimicrobial activity against Mycobacterium tuberculosis H37Rv after 10 days by BACTEC MGIT method. Type of experiment: functional. Conditions: 240 h.
Experiment [5] concerns Pseudomonas aeruginosa. The experiment is described as follows: Antimicrobial activity against Pseudomonas aeruginosa MTCC 741 after 24 hr by disk diffusion method. Conditions: for MIC: Pseudomonas aeruginosa, MTCC 741, 24 h. It is filed as functional.
The test system of experiment [6] is Escherichia coli. The experiment is described as follows: microbe, parasite or virus in culture. Conditions: MTCC 739, 24 h, read-out: IZ.
Description: Antimicrobial activity against Escherichia coli MTCC 739 at 100 ug/disk after 24 hr by disk diffusion method
Experiment [7] relates to Bacillus subtilis. The experiment is described as follows: microbe, parasite or virus in culture. Conditions: MTCC 619, 24 h, read-out: IZ.
Description: Antimicrobial activity against Bacillus subtilis MTCC 619 at 100 ug/disk after 24 hr by disk diffusion method
Experiment [8] relates to Staphylococcus aureus. The experiment is described as follows: Antimicrobial activity against Staphylococcus aureus MTCC 96 at 100 ug/disc after 24 hr by disk diffusion method. Conditions: MTCC 96, 24 h, read-out: IZ.
For experiment [9], the system named is Pseudomonas aeruginosa. The experiment is described as follows: microbe, parasite or virus in culture. Conditions: MTCC 741, 24 h, read-out: IZ.
Description: Antimicrobial activity against Pseudomonas aeruginosa MTCC 741 at 100 ug/disk after 24 hr by disk diffusion method

SMILES strings stand for the structures. ≈ marks a conversion by molar mass, not a printed value.

Turning to `CC1=NN(c2cc(Cl)ccc2Cl)C(=O)C1/N=N/c1n[nH]c2nc3cc4ccccc4cc3cc12` (centres undefined), the “inhibition zone (IZ)” value in the experiment on Staphylococcus aureus [1] amounted to 22 mm; with Escherichia coli [2] it was 19 mm; in the experiment on Bacillus subtilis [3] it was 24 mm; in the experiment with Pseudomonas aeruginosa [5] it was 18 mm. Further, the MIC (as a rule, the smallest concentration in the dilution series that meets the test's criterion for growth inhibition) against Staphylococcus aureus [1] came out at 20 µg/mL (≈ 41 µM); in the experiment on Escherichia coli [2], 50 µg/mL (≈ 102 µM); in the experiment on Bacillus subtilis [3], 20 µg/mL (≈ 41 µM); against Pseudomonas aeruginosa [5], 50 µg/mL (≈ 102 µM). Also, the MIC99 (usually an inhibitory concentration at the 99% level, which refers to growth in some studies and to a panel of isolates in others) in experiment [4] is 62.5 µg/mL (≈ 128 µM).
Turning to `CC1=NN(c2ccccc2Cl)C(=O)C1/N=N/c1n[nH]c2nc3cc4ccccc4cc3cc12` (centres undefined), the “inhibition zone (IZ)” value with Staphylococcus aureus [1], in the experiment with Escherichia coli [2], in the experiment on Bacillus subtilis [3] and with Pseudomonas aeruginosa [5] was 16 mm each time. For the same molecule, the MIC against Staphylococcus aureus [1], against Escherichia coli [2], against Bacillus subtilis [3] and in the experiment on Pseudomonas aeruginosa [5] was 50 µg/mL (≈ 110 µM) in each case. This molecule also showed an MIC99 in experiment [4] of 250 µg/mL (≈ 551 µM).
On to `CC1=NN(c2ccc(Cl)c(Cl)c2)C(=O)C1/N=N/c1n[nH]c2nc3cc4ccccc4cc3cc12` (centres undefined), for which the “inhibition zone (IZ)” value in the experiment on Staphylococcus aureus [1] came to 20 mm; in the experiment with Escherichia coli [2], 20 mm; with Bacillus subtilis [3] it was 24 mm; in the experiment with Pseudomonas aeruginosa [5], 21 mm. Moreover, the MIC against Staphylococcus aureus [1] was 20 µg/mL (≈ 41 µM); in the experiment with Escherichia coli [2], 50 µg/mL (≈ 102 µM); against Bacillus subtilis [3] it was 20 µg/mL (≈ 41 µM); in the experiment with Pseudomonas aeruginosa [5], 50 µg/mL (≈ 102 µM). In experiment [4], this molecule gave an MIC99 of 62.5 µg/mL (≈ 128 µM).
As for `CC1=NN(c2cc(S(=O)(=O)O)ccc2Cl)C(=O)C1/N=N/c1n[nH]c2nc3cc4ccccc4cc3cc12` (centres undefined), the “inhibition zone (IZ)” value with Staphylococcus aureus [1] worked out at 18 mm; in the experiment on Escherichia coli [2] it was 18 mm; in the experiment on Bacillus subtilis [3] it was 14 mm; with Pseudomonas aeruginosa [5], 14 mm. In addition, the minimal inhibitory concentration (MIC) in the experiment with Staphylococcus aureus [1] is 50 µg/mL (≈ 93.6 µM); with Escherichia coli [2], 100 µg/mL (≈ 187 µM); in the experiment with Bacillus subtilis [3] it was 50 µg/mL (≈ 93.6 µM); in the experiment on Pseudomonas aeruginosa [5], 100 µg/mL (≈ 187 µM). The molecule further displayed an MIC99 in [4] of 1000 µg/mL (≈ 1870 µM).
Regarding `CC1=NN(c2cccc(Cl)c2)C(=O)C1/N=N/c1n[nH]c2nc3cc4ccccc4cc3cc12` (centres undefined), the “inhibition zone (IZ)” value in the experiment with Staphylococcus aureus [1] turned out to be 16 mm; with Escherichia coli [2], 17 mm; in the experiment on Bacillus subtilis [3], 18 mm; in the experiment on Pseudomonas aeruginosa [5], 15 mm. The MIC with Staphylococcus aureus [1], with Escherichia coli [2], against Bacillus subtilis [3] and with Pseudomonas aeruginosa [5] was 50 µg/mL (≈ 110 µM) each time. In [4], the MIC99 was 250 µg/mL (≈ 551 µM).
For `CC1=NN(c2ccc(S(=O)(=O)O)cc2C)C(=O)C1/N=N/c1n[nH]c2nc3cc4ccccc4cc3cc12` (centres undefined), the “inhibition zone (IZ)” value in the experiment on Staphylococcus aureus [1] was 12 mm; in the experiment on Escherichia coli [2], 12 mm; in the experiment on Bacillus subtilis [3], 11 mm; in the experiment on Pseudomonas aeruginosa [5], 11 mm. The MIC against Staphylococcus aureus [1], in the experiment with Escherichia coli [2], against Bacillus subtilis [3] and with Pseudomonas aeruginosa [5] was 100 µg/mL (≈ 195 µM) each time. This molecule also yielded an MIC99 in experiment [4] of 500 µg/mL (≈ 974 µM).
`CC1=NN(c2cc(Cl)c(S(=O)(=O)O)cc2Cl)C(=O)C1/N=N/c1n[nH]c2nc3cc4ccccc4cc3cc12` (centres undefined): the “inhibition zone (IZ)” value in the experiment on Staphylococcus aureus [1] was determined as 18 mm; in the experiment with Escherichia coli [2], 16 mm; with Bacillus subtilis [3], 20 mm; in the experiment with Pseudomonas aeruginosa [5] it was 15 mm. Besides, the MIC in the experiment with Staphylococcus aureus [1] is 50 µg/mL (≈ 88 µM); in the experiment with Escherichia coli [2], 100 µg/mL (≈ 176 µM); against Bacillus subtilis [3], 50 µg/mL (≈ 88 µM); with Pseudomonas aeruginosa [5], 100 µg/mL (≈ 176 µM). Besides, the MIC99 in experiment [4] is 500 µg/mL (≈ 880 µM).
Consider `CC1=NN(c2ccc(C)cc2)C(=O)C1/N=N/c1n[nH]c2nc3cc4ccccc4cc3cc12` (centres undefined), for which the “inhibition zone (IZ)” value in the experiment with Staphylococcus aureus [1] came out at 14 mm; in the experiment on Escherichia coli [2], 12 mm; in the experiment with Bacillus subtilis [3] it was 16 mm; in the experiment on Pseudomonas aeruginosa [5], 14 mm. Moreover, the MIC against Staphylococcus aureus [1] is 50 µg/mL (≈ 115 µM); in the experiment on Escherichia coli [2], 100 µg/mL (≈ 231 µM); with Bacillus subtilis [3], 50 µg/mL (≈ 115 µM); in the experiment on Pseudomonas aeruginosa [5], 100 µg/mL (≈ 231 µM). In experiment [4], the MIC99 came out at 125 µg/mL (≈ 288 µM).
As to `CC1=NN(c2ccc(S(=O)(=O)O)cc2)C(=O)C1/N=N/c1n[nH]c2nc3cc4ccccc4cc3cc12` (centres undefined), the “inhibition zone (IZ)” value with Staphylococcus aureus [1] is 14 mm; in the experiment with Escherichia coli [2], 10 mm; in the experiment on Bacillus subtilis [3], 12 mm; in the experiment on Pseudomonas aeruginosa [5], less than 10 mm. The MIC with Staphylococcus aureus [1], in the experiment on Escherichia coli [2], against Bacillus subtilis [3] and in the experiment with Pseudomonas aeruginosa [5] was 100 µg/mL (≈ 200 µM) each time. Besides, the MIC99 in experiment [4] was found to be 1000 µg/mL (≈ 2000 µM).
On to `O=C(O)c1cn(C2CC2)c2cc(N3CCNCC3)c(F)cc2c1=O` [CIPROFLOXACIN], for which the zone of inhibition at 100 µg/disc with Escherichia coli [6] worked out at 30 mm; in the experiment with Bacillus subtilis [7], 33 mm; in the experiment on Staphylococcus aureus [8], 32 mm; in the experiment with Pseudomonas aeruginosa [9], 31 mm. Moreover, the MIC against Staphylococcus aureus [1], against Escherichia coli [2], in the experiment on Bacillus subtilis [3] and in the experiment on Pseudomonas aeruginosa [5] was not above 1 µg/mL in each case.
Turning to `CC1=NN(c2cccc(S(=O)(=O)O)c2)C(=O)C1/N=N/c1n[nH]c2nc3cc4ccccc4cc3cc12` (centres undefined), the “inhibition zone (IZ)” value is recorded as 11 mm in the experiment with Staphylococcus aureus [1], 10 mm in the experiment on Escherichia coli [2], 12 mm in the experiment with Bacillus subtilis [3] and less than 10 mm in the experiment with Pseudomonas aeruginosa [5]. For the same molecule, the MIC against Staphylococcus aureus [1], against Escherichia coli [2], in the experiment on Bacillus subtilis [3] and against Pseudomonas aeruginosa [5] was 100 µg/mL (≈ 200 µM) throughout. Further, in experiment [4], the MIC99 was 500 µg/mL (≈ 1000 µM).
As to `NNC(=O)c1ccncc1` [ISONIAZID], the MIC99 in experiment [4] came out at 0.2 µg/mL (≈ 1.46 µM).

For the origin of these results see ChEMBL document CHEMBL3045500, “Antituberculosis and antibacterial evaluations of some novel phenyl pyrazolone-substituted 1h-benzo[g]pyrazolo[3,4-b]quinoline-3-ylamine derivatives” (2012).
